Measured values reported in US20060100264A1, “3,3'-Diindolylmethane immune activating compositions” (priority 2004, published 2006).

Legend:
GAS element = assay: Electrophoretic gel mobility shift assay, STAT1 binding to GAS element; format: cell-based, human; conditions: DIM pretreatment for various times, IFNγ 30 min
Protocol: An electrophoretic gel mobility shift assay was used to verify that the phosphorylated STAT1 was effectively activated to a dimer that could bind to the GAS element. The ^32P-labeled DNA probe containing a GAS sequence was incubated with nuclear extracts from cells pretreated with DIM for various times as indicated, and with IFNγ for 30 min. […] When samples were incubated with an antibody specific to STAT1, the band was super-shifted, confirming the identity of the protein binding to the labeled GAS probe.

[1] = system: OAS-Luc reporter (promoter and 5′-flanking region of p69-OAS); assay: OAS-Luc luciferase reporter in transiently transfected MCF-7 cells; format: cell-based, human; conditions: 24 h treatment
Protocol: (§1) In a further experiment to examine whether the inducing effects of DIM are at the transcriptional level, the effect of DIM on activities of two luciferase reporter constructs, OAS-Luc (12) and 4GAS-Luc (13) was examined. OAS-Luc contains the promoter and 5′-flanking region (−972) of p69-OAS and GAS-Luc contains four repeats of the consensus GAS element. MCF-7 cells transiently transfected with these reporter constructs were treated with IFNγ, DIM, or a combination of both for 24 h. […] IFNγ induced transcriptional activity of this reporter in a concentration dependent manner to a maximum of about 1.8 fold, which is less than the response of the endogenous gene of about 5.0 fold. In marked contrast to the maximum effects of combined treatments of the inducers on endogenous gene expression (nearly 12-fold increase compared to vehicle treated cells), the reporter gene construct responded with less than a 3-fold increase over the controls.

[2] = system: interferon-inducible protein 56 (p56); assay: p56 mRNA expression in DIM-treated MCF-7 cells (cDNA microarray, Northern blot, quantitative RT-PCR); format: cell-based, human
Protocol: (§2) Immune response activating effects of the DIM analogs are examined with cell-based assays for cytokine and cytokine receptor expression. […] We also used a sensitive sandwich ELISA assay to examine levels of IFNγ in medium from confluent cultures of MCF-7 cells that were treated for up to 3 days. DIM derivatives confirmed to have immune response activating activity in our reporter and ELISA assays are subsequently screened in a whole animal cytokine production and Y. enterocolitica infection studies, as described below in Examples VIII and IX.
An initial cDNA gene expression microarray screen of human breast cancer MCF-7 cells treated with DIM, followed by confirmation of results using Northern blots and quantitative RT-PCR, established the transcriptional activation of IFNγ, IFNγ receptor (IFNGR1), oligoadenylate-synthase (OAS) family member protein 69 (p69-OAS), and interferon-inducible protein 56 (p56), a protein closely related to OAS. […] Maximum induction for IFNγ, IFNGR1, p69-OAS and p56 were 4.6, 3.8, 3.2 and 4.0 fold, respectively.

IFNGR1 protein = assay: Western blot analysis of IFNGR1 protein; format: cell-based, human
Protocol: IFNGR1 protein levels increased by approximately 7 fold after 24 h and persisted to 48 h compared to DMSO-treated controls.
Comparison of our results with DIM to our studies with I3C (27) show some distinct differences in the activity of DIM and its in vivo precursor in their effects on IFNγ signaling. […] Similar effects of DIM and I3C were also observed on cell proliferation and cell cycling. […] Thus, a strong level of induction (about 5 fold) was seen after only 6 hours of exposure to DIM, and the maximum induction was attained by 24 hours of treatment with this diindole. In contrast, receptor expression was increased by only about 3 fold following 24 hours of treatment with I3C, and appeared to reach the maximum induction only after about 48 hours of exposure. […] Indeed, we have shown previously that DIM accumulates in the nucleus of MCF-7 cultured cells treated with I3C (28).

[3] = Estimated blood concentration of DIM from dietary broccoli; parameters: species or system human; conditions: approximately 12 mg DIM from 200 g broccoli daily, maximum absorption assumed
Protocol: We observed the immune response activating activity of DIM at physiologically relevant concentrations. A person of average weight who consumes 200 g of broccoli daily will obtain approximately 12 mg of DIM. With maximum absorption of DIM, the blood concentration of DIM will reach approximately 10 μM. Therefore, in vivo concentrations of DIM from dietary Brassica vegetables represent the effective levels of DIM in vitro.

IFNγ = assay: Sandwich ELISA of IFNγ in medium from confluent MCF-7 cultures; format: cell-based, human; conditions: vehicle control virtually undetectable
Protocol: as §2
Using a sensitive sandwich ELISA assay, we examined levels of IFNγ in medium from confluent cultures of MCF-7 cells that were treated with DIM for up to 3 days. […] Levels of IFNγ in the medium of cultured cells were increased following incubations for 1 and 3 days from virtually undetectable levels in the vehicle treated control to approximately 50±10 pg/mL and 80±30 pg/mL, respectively, for the indole treated cells.

IL-12 = assay: Serum IL-12 by ELISA in mice after DIM; format: in vivo; conditions: 30 μg/kg DIM orally
Protocol: We firstly investigated the effect of unsubstituted DIM on the production of IL-6, G-CSF, IL-12, TNF-α and IFNγ. A groups of 3 mice was given 30 μg/kg of unsubstituted DIM orally and then sacrificed at 1, 3, 5, 8, and 24 h after drug challenge. Serum was collected, pooled, and assayed for IL-6, G-CSF, IL-12 and TNF-α by ELISA. […] DIM produced an increase in circulating levels of G-CSF and TNF-α with the 3 h time point being maximal. […] DIM also stimulated IL-12 and kinetics were slightly different since the increased levels were sustained for at least 24 h.

[4] = system: IL-6, G-CSF, IL-12, TNF-α and IFNγ; assay: Serum levels of cytokines in mice; format: in vivo
[5] = system: 4GAS-Luc reporter (four repeats of the consensus GAS element); assay: 4GAS-Luc luciferase reporter in transiently transfected MCF-7 cells; format: cell-based, human; conditions: DIM 50 μM, IFNγ concentration dependent, maximum
Protocol: as §1
Thus, treatment with DIM (50 μM) by itself again produced a 2 to 3-fold increase in activity of this reporter. IFNγ treatments, however, produced a robust concentration dependent increase in reporter activity to approximately 40-fold induction compared to vehicle treated controls. […]

MCF-7 cells = assay: Flow cytometry of cell cycling (G1 phase); format: cell-based, human; conditions: up to 3 days; control approximately 50% in G1
Excerpt: Flow cytometry was used to determine the effects of DIM and IFNγ on cell cycling. […] In control groups approximately 50% of the cells were in G1. Treatment with IFNγ alone caused a small progressive increase in G1 blocked cells of up to 10% above the DMSO control, after 3 days.

c1ccc2c(Cc3c[nH]c4ccccc34)c[nH]c2c1 [DIM, 3,3′-Diindolylmethane]
Band-shift of 32P-labeled GAS probe with nuclear extracts (GAS element): did not produce a shifted band
Maximum induction of OAS-Luc reporter [1]: about 2.3 fold
Maximum induction of p56 mRNA ([2]; MCF-7 cells treated with DIM): 4.0 fold
Treatment time at which p56 expression was fully induced ([2]; MCF-7 cells treated with DIM): 6 h
p56 mRNA level following 48 h of DIM treatment ([2]; MCF-7 cells, 48 h): returned to near control levels
Maximum level of IFNGR1 protein induction (IFNGR1 protein; DIM): about 7 fold
Time at which maximum IFNGR1 protein induction was attained (IFNGR1 protein; DIM): ≤ 24 h
IFNGR1 protein induction (IFNGR1 protein; after 6 hours of exposure to DIM): about 5 fold
IFNGR1 protein level increase compared to DMSO-treated controls (IFNGR1 protein; after 24 h of DIM, persisted to 48 h): approximately 7 fold
Blood concentration of DIM [3]: approximately 10 μM
Level of IFNγ in the medium of cultured cells (IFNγ; MCF-7, incubation 1 day): approximately 50±10 pg/mL
Level of IFNγ in the medium of cultured cells (IFNγ; MCF-7, incubation 3 days): ~80 ± 30 pg/mL
Time for which increased IL-12 levels were sustained (IL-12): at least 24 h
Cytokine production, including IFNγ ([4]; intravenous administration): elevated cytokine production
Serum levels of cytokines ([4]; oral, 1-24 h after challenge): stimulated a time-dependent increase in serum levels of cytokines
Induction of 4GAS-Luc reporter activity compared to vehicle treated controls [5]: 2 to 3 fold
Increase in G1 blocked cells above the DMSO control (MCF-7 cells): up to 30%
